According to US8691864B2, “Agents useful for reducing amyloid precursor protein and treating dementia and methods of use thereof” (priority 2000, dated 2014):

Tests used:
[1] = test system: secreted APP; experiment: ELISA for secreted APP in SHSY5Y cells; format: cell-based, human; conditions: 16 hours
Protocol: (§1) An enzyme-linked immunosorbent assay was developed to detect secreted APP in SHSY5Y cells, a human neuroblastoma cell line. The purpose of the screen was to discover small molecules that inhibit APP protein synthesis in SHSY5Y cells. SHSY5Y cells were plated at 1×10^5 cells/well in […] of DMEM containing 0.5% heat inactivated FBS in 96 well tissue culture treated plates (Falcon no. 35 3072). 144 MES compounds were tested at final concentrations of […] in 0.1% DMSO. Compounds were added and the plates incubated for 16 hours at 37° C./5% CO2. Maxisorp plates (Nunc no. 437958) were coated overnight with […] capture antibody (Biosource 44-100) diluted in Ca^++ and Mg^++ free PBS. Biosource 44-100 is a mouse mAb that recognizes aa 1-100 of human APP. Plates were blocked for 30 minutes with 1 mg/mL BSA in Ca^++ and Mg^++ free PBS. Plates were washed 3× with wash buffer (Ca^++ and Mg^++ free PBS+0.01% Tween20). […] of supernatants and non-cultured medium controls were transferred from culture plates to ELISA plates. Culture plates were reserved for toxicity analysis. Supernatants were incubated for 4 hours at RT on a plate shaker. After supernatant incubation, plates were washed 3×. Primary antibody (Signet Clone 6E-10 biotin) was added at 0.3125 mg/mL and incubated overnight at 4° C. The recognition site of 6E-10 is aa 1-17 of Ab. For detection, a 1:3000 dilution of horseradish peroxidase conjugated streptavidin (Endogen no. N-100) was incubated for 30 minutes. Plates were washed 3×. Enzyme activity was assessed by incubation with […] TMB substrate solution (Moss no. TMB-US) for 20 minutes. The reaction was stopped by the addition of […] 0.18M sulfuric acid. Optical density was read at 450 nm on Wallac Victor2 plate reader. During the first incubation, toxicity was determined using MTS assay, Cell Titer96 AQ reagent (Promega no. G5430). The background values from the non-cultured medium control were subtracted from the sample values and secreted APP levels and toxicity were expressed as % vehicle control. Of the 144 MES compounds screened, 12 inhibited secreted APP as determined by ELISA. The results are depicted in FIGS. 13A-M.
(§2) Using the experimental procedure outlined above, APP secretion and toxicity studies were performed on several other non-carbamate compounds, and the results are shown in Tables 3 and 4. The compound structures are provided in Table 2 in the application, which are identified by their MES number.

[2] = test system: SH-SY-5Y Cells; experiment: MTS toxicity assay in SHSY5Y cells; format: cell-based, human
Protocol: as §1, §2

Compound | APP Secretion by SH-SY-5Y Cells ([1]; Dose 2 uM) | APP Secretion by SH-SY-5Y Cells ([1]; Dose 6 uM) | APP Secretion by SH-SY-5Y Cells ([1]; Dose 20 uM) | APP Toxicity SH-SY-5Y Cells (MTS assay) ([2]; Dose 2 uM) | APP Toxicity SH-SY-5Y Cells (MTS assay) ([2]; Dose 6 uM) | APP Toxicity SH-SY-5Y Cells (MTS assay) ([2]; Dose 20 uM) | APP Secretion by SH-SY-5Y Cells ([1]; Dose 0.08 uM) | APP Secretion by SH-SY-5Y Cells ([1]; Dose 0.25 uM) | APP Secretion by SH-SY-5Y Cells ([1]; Dose 0.74 uM) | APP Toxicity SH-SY-5Y Cells (MTS assay) ([2]; Dose 0.08 uM) | APP Toxicity SH-SY-5Y Cells (MTS assay) ([2]; Dose 0.25 uM) | APP Toxicity SH-SY-5Y Cells (MTS assay) ([2]; Dose 0.74 uM) | APP Secretion by SH-SY-5Y Cells ([1]; Dose 2 uM, listed as 9228) | APP Secretion by SH-SY-5Y Cells ([1]; Dose 6 uM, listed as 9228) | APP Secretion by SH-SY-5Y Cells ([1]; Dose 20 uM, listed as 9228) | APP Toxicity SH-SY-5Y Cells (MTS assay) ([2]; Dose 2 uM, listed as 9228) | APP Toxicity SH-SY-5Y Cells (MTS assay) ([2]; Dose 6 uM, listed as 9228) | APP Toxicity SH-SY-5Y Cells (MTS assay) ([2]; Dose 20 uM, listed as 9228)
COc1ccc2c(c1)[C@@]1(C)CCN(C)C1N2C (single isomer, unassigned; (+)) [MES 9295, (+)-O-Methyleseroline] | 102.6 % vehicle control | 95.7 % vehicle control | 89.35 % vehicle control | 101.15 % vehicle control | 100.4 % vehicle control | 99.85 % vehicle control |  |  |  |  |  |  |  |  |  |  |  | 
C[C@@]12CCN(Cc3ccccc3)C1Nc1ccc(O)cc12 (stereo partly drawn) [MES 9279] | 43.27 % vehicle control | 42.37 % vehicle control | 18.4 % vehicle control | 68.63 % vehicle control | 46.67 % vehicle control | 38.63 % vehicle control | 97.8 % vehicle control | 98.4 % vehicle control | 97 % vehicle control | 102.9 % vehicle control | 101.1 % vehicle control | 100.1 % vehicle control |  |  |  |  |  | 
COc1ccc2c(c1)[C@]1(C)CCSC1N2C (stereo partly drawn) [MES 9302] | 100.35 % vehicle control | 105.4 % vehicle control | 105.8 % vehicle control | 100.7 % vehicle control | 101.2 % vehicle control | 99.05 % vehicle control |  |  |  |  |  |  |  |  |  |  |  | 
CNC(C)c1cccc(OC)c1 (stereo not drawn) [MES 9271, 3-Methoxy-(1′-N-methylamino)-ethyl-benzene] | 96.1 % vehicle control | 89.9 % vehicle control | 63.825 % vehicle control | 99 % vehicle control | 99.475 % vehicle control | 94.1 % vehicle control | 96.6 % vehicle control | 87.95 % vehicle control | 92.2 % vehicle control | 103.55 % vehicle control | 103.45 % vehicle control | 103.1 % vehicle control |  |  |  |  |  | 
CC(Br)C(=O)N(Cc1ccccc1)c1ccc(O)cc1 (stereo not drawn) [MES 9306] | 110.75 % vehicle control | 114.55 % vehicle control | 124.8 % vehicle control | 102.3 % vehicle control | 101.45 % vehicle control | 106 % vehicle control |  |  |  |  |  |  |  |  |  |  |  | 
COC(=O)NCCC1C(=O)N(Cc2ccccc2)c2ccc(OC)cc21 (stereo not drawn) [MES 9317] | 99.87 % vehicle control | 112.3 % vehicle control | 122 % vehicle control | 97.27 % vehicle control | 97.23 % vehicle control | 93.5 % vehicle control |  |  |  |  |  |  |  |  |  |  |  | 
C/N=C(\C)c1cccc(OC)c1 [MES 9270] | 95.8 % vehicle control | 95.9 % vehicle control | 98.15 % vehicle control | 99.4 % vehicle control | 101.1 % vehicle control | 100.4 % vehicle control |  |  |  |  |  |  |  |  |  |  |  | 
COc1ccc2c(c1)C(C)(c1ccccc1)C(=O)N2C (stereo not drawn) [MES 9324] | 110.3 % vehicle control | 95.9 % vehicle control | 99.95 % vehicle control | 102.15 % vehicle control | 100.4 % vehicle control | 98.65 % vehicle control |  |  |  |  |  |  |  |  |  |  |  | 
COc1ccc2c(c1)[C@@]1(C)CCNC1N2C (stereo partly drawn) [MES 9228] |  |  |  |  |  |  |  |  |  |  |  |  | 97.75 % vehicle control | 110.45 % vehicle control | 130.05 % vehicle control | 102.8 % vehicle control | 97.6 % vehicle control | 95.4 % vehicle control
C=CC1C[N+]2(Cc3ccc(C(F)(F)F)cc3)CCC1CC2[C@H](O)c1ccnc2ccccc12.[Br-] (stereo partly drawn) [MES 9226] | 116.55 % vehicle control | 101.95 % vehicle control | 104.65 % vehicle control | 106.4 % vehicle control | 99.7 % vehicle control | 97.9 % vehicle control |  |  |  |  |  |  |  |  |  |  |  | 
Clc1ccc(C2CC3CCC2N3)cn1 (stereo not drawn) [MES 9331] | 95.45 % vehicle control | 102.1 % vehicle control | 106.7 % vehicle control | 100.45 % vehicle control | 99.99 % vehicle control | 98.95 % vehicle control |  |  |  |  |  |  |  |  |  |  |  | 
COc1ccc2c(c1)[C@@]1(C)CCN(C)C1N2C (stereo partly drawn) [MES 9229] | 111.6 % vehicle control | 111.4 % vehicle control | 125.1 % vehicle control | 99.97 % vehicle control | 96.07 % vehicle control | 91.47 % vehicle control |  |  |  |  |  |  |  |  |  |  |  | 
COc1ccc2[nH]c3c(c2c1)CCN(C)C3 [MES 9316] | 104.15 % vehicle control | 98.45 % vehicle control | 102 % vehicle control | 99.15 % vehicle control | 98.05 % vehicle control | 98.75 % vehicle control |  |  |  |  |  |  |  |  |  |  |  | 
COC(=O)CC1(C)C(=O)N(C)c2ccc(OC)cc21 (stereo not drawn) [MES 9309] | 100 % vehicle control | 106.4 % vehicle control | 100.9 % vehicle control | 100.85 % vehicle control | 98.6 % vehicle control | 101.1 % vehicle control |  |  |  |  |  |  |  |  |  |  |  | 
COc1ccc2c(c1)[C@](C)(CCN)C(=O)N2C.Cl [MES 9314] | 111.25 % vehicle control | 99.15 % vehicle control | 109.4 % vehicle control | 100.15 % vehicle control | 100.85 % vehicle control | 100.6 % vehicle control |  |  |  |  |  |  |  |  |  |  |  | 
COc1ccc2c(c1)C1(c3ccccc3)CCNC1N2C (stereo not drawn) [MES 9305] | 106.2 % vehicle control | 102.4 % vehicle control | 102.2 % vehicle control | 95.8 % vehicle control | 96.73 % vehicle control | 94.83 % vehicle control |  |  |  |  |  |  |  |  |  |  |  | 
